Source: patent US20240263142A1, “HUMAN OVARIAN CANCER NIRAPARIB-RESISTANT CELL STRAIN AND USE THEREOF” (WOMEN’S HOSPITAL, ZHEJIANG UNIVERSITY SCHOOL OF MEDICINE, priority 2022, published 2024)
Read-outs that look alike come from different tables or passages of the source.

What was measured:
A2780-NiraR cells = assay: CCK-8 cytotoxicity experiment on Niraparib-resistant A2780-NiraR cells (resistance index, stability of resistance); type: cell-based, human; details: for Drug resistance index (RI) = IC50 of drug-resistant cells/IC50 of parental cells: A2780-NiraR vs A2780; for IC50: Homo sapiens
Description: (§1) A cell counting kit-8 (CCK-8) of Shanghai Beyotime Biotechnology Co., Ltd. (C0038) was used in the cytotoxicity experiment. Cells in logarithmic growth phase were collected, and the concentration of cell suspension was adjusted to 5×10^4 cells/ml; 100 μl of the cell suspension was added to each well of 96-well plate, and the density of the cells to be tested was 5000 cells/well; cultures were incubated overnight in the incubator with 5 vol % CO2 at 37° C. until the cells were grown as adherent monolayers, and then drugs with concentrations of 1×10^−3-100 μM were added respectively; 3 replicate wells were set for each concentration; OD values were determined after 72 h of drug treatment; 10 μl CCK-8 solution was added to each well; after further incubation in the cell incubator for 2 h, the absorbance was measured at 450 nm using a microplate reader (Bio-Rad, Model 680), as shown in FIG. 3. The IC50 of the drug was calculated.
Resistance index (RI)=IC50 of drug-resistant cells/IC50 of parental cells.
After the establishment of A2780-NiraR cell strain, the drug resistance was re-tested after cell resuscitation following 3-month drug-withdrawal culture and 6-month liquid nitrogen cryopreservation. The procedure was the same as that of the resistance index determination in part 3.

A2780 cells = assay: CCK-8 cytotoxicity experiment on parental A2780 cells; type: cell-based; details: Homo sapiens, 72 h drug treatment
Description: as §1

[1] = A2780-NiraR cells, 72 h drug treatment, CCK-8, read-out: IC50

Row | SMILES | Resistance of A2780-NiraR cells in words (A2780-NiraR cells; A2780-NiraR cells) | Drug resistance index (RI) = IC50 of drug-resistant cells/IC50 of parental cells (A2780-NiraR cells) | IC50 (A2780-NiraR cells; [1]) [µM] | IC50 (A2780 cells) [µM] | IC50 (A2780-NiraR cells; A2780-NiraR after resuscitation following 3-month drug-withdrawal culture and 6-month liquid nitrogen cryopreservation, read-out: IC50 of A2780-NiraR on re-test) [µM]
1 | CC(=O)O[C@H]1C(=O)[C@@]2(C)[C@H]([C@H](OC(=O)c3ccccc3)[C@]3(O)C[C@H](OC(=O)[C@H](O)[C@@H](NC(=O)c4ccccc4)c4ccccc4)C(C)=C1C3(C)C)[C@]1(OC(C)=O)CO[C@@H]1C[C@@H]2O [Paclitaxel] | cross-resistant | 31.02 | 0.318 | 0.01 | 
2 | NC(=O)c1cccc2cn(-c3ccc([C@@H]4CCCNC4)cc3)nc12 [Niraparib] | highly resistant | 8.274 | 26.2 | 3.17 | 24
